Reference: patent US11000033B2, “Ketone or oxime compound, and herbicide” (NISSAN CHEMICAL CORPORATION, priority 2014, dated 2021)

Experiments:
Assay type in all cases: in vivo
[1] = system: Avena fatua; test: Test Example 4: herbicidal effect by soil treatment (symbol I); details: application herbicide amount 320 g/ha
Method in brief: (§1)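 Seeds were sown in sterilized diluvial soil, covered with about 1.5 cm of soil, and the soil surface was sprayed with a water-diluted emulsion of the compound at a predetermined rate. Plants grew in a greenhouse at 25° C. to 30° C.; effects were scored visually 3 weeks after application.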

[2] = system: Apera spica-venti; test: Test Example 5: herbicidal effect by foliage application, plastic box (symbol L); details: 320 g/ha, 3 weeks after application
Method in brief: (§2)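 Sowing in sterilized diluvial soil, 14 days' greenhouse growth at 25° C. to 30° C., then uniform small-sprayer foliar application of aqueous emulsion dilution; plants scored three weeks afterwards.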

[3] = system: Echinochloa oryzacola Vasing.; test: Test Example 2: herbicidal activity, application during weed generation in submerged conditions (symbol A); details: Table 23; application herbicide amount 320 g/ha; grade 0-5 by criteria of Test Example 1
Method in brief: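 Treatment timing was the one- to two-leaf stage, with diluted emulsifiable compound dropped onto the paddy water (depth 4 cm) over alluvial soil. All three species grew from a mixed sowing in a 25° C. to 30° C. greenhouse. Injury was judged by eye 3 weeks on.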

[4] = system: beet; test: Test Example 5: effect on crop by foliage application, plastic box (symbol f); details: 320 g/ha, 3 weeks after application
Method in brief: (§3)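 Plants were raised from seed in a greenhouse (25° C. to 30° C.) after sowing in a plastic box of sterilized diluvial soil.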

[5] = system: beet; test: Test Example 4: effect on crop by soil treatment (symbol f); details: application herbicide amount 320 g/ha
Method in brief: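 Grown at 25° C. to 30° C. in a greenhouse, the crops came from seed sown spot-wise in sterilized diluvial soil under roughly 1.5 cm of covering soil.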

[6] = system: soybean; test: Test Example 5: effect on crop by foliage application, plastic box (symbol d); details: 320 g/ha, 3 weeks after application
Method in brief: as §3

[7] = system: Digitaria ciliaris; test: Test Example 4: herbicidal effect by soil treatment (symbol F); details: application herbicide amount 320 g/ha
Method in brief: as §1

[8] = system: Abutilon theophrasti; test: Test Example 4: herbicidal effect by soil treatment (symbol M); details: application herbicide amount 320 g/ha
Method in brief: as §1

[9] = system: rice plant; test: Test Example 5: effect on crop by foliage application, plastic box (symbol b); details: 320 g/ha, 3 weeks after application
Method in brief: as §3

[10] = system: Abutilon theophrasti; test: Test Example 5: herbicidal effect by foliage application, plastic box (symbol M); details: 320 g/ha, 3 weeks after application
Method in brief: as §2

[11] = system: Veronica persica; test: Test Example 5: herbicidal effect by foliage application, plastic box (symbol R); details: 320 g/ha, 3 weeks after application
Method in brief: as §2

[12] = system: Echinochloa crus-galli var. crus-galli; test: Test Example 3: herbicidal effect by foliage application, Wagner pot (symbol H); details: application herbicide amount 320 g/ha
Method in brief: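 The compound, formulated as an emulsion and diluted with water to a predetermined rate, is applied uniformly to leaves of two-week-old seedlings growing in submerged alluvial soil at 25–30 °C. Rice is included. Each plant is assessed 3 weeks later using defined criteria.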

[13] = system: Digitaria ciliaris; test: Test Example 5: herbicidal effect by foliage application, plastic box (symbol F); details: 320 g/ha, 3 weeks after application
Method in brief: as §2

[14] = system: Amaranthus retroflexus; test: Test Example 5: herbicidal effect by foliage application, plastic box (symbol N); details: 320 g/ha, 3 weeks after application
Method in brief: as §2

[15] = system: Alopecurus myosuroides; test: Test Example 4: herbicidal effect by soil treatment (symbol J); details: application herbicide amount 320 g/ha
Method in brief: as §1

Row | Structure (SMILES) | I (Avena fatua) herbicidal effect grade [1] | L: Apera spica-venti, herbicidal effect grade [2] | Herbicidal effect grade, A: Echinochloa oryzacola Vasing. [3] | f: beet, effect on crop grade [4] | f (beet) effect on crop grade [5] | d: soybean, effect on crop grade [6] | F (Digitaria ciliaris) herbicidal effect grade [7] | M (Abutilon theophrasti) herbicidal effect grade [8] | b: directly sowed rice plant, effect on crop grade [9] | M: Abutilon theophrasti, herbicidal effect grade [10] | R: Veronica persica, herbicidal effect grade [11] | herbicidal effect on H (Echinochloa crus-galli var. crus-galli), grade 0-5 [12] | F: Digitaria ciliaris, herbicidal effect grade [13] | N: Amaranthus retroflexus, herbicidal effect grade [14] | J (Alopecurus myosuroides) herbicidal effect grade [15]
1 | CC(CC1CC(O)=C(c2c(C)cc(C)cc2C)C1=O)=NOCC(=O)N1CCOCC1 (stereo not drawn) [1-025] | 3 (Herbicidal ratio of 40% or higher and lower than 70%) | 5 (Herbicidal ratio of 90% or more (almost completely withered)) | 1 (Herbicidal ratio of 5% or higher and lower than 20%) | 0 (Herbicidal ratio of 5% or lower (almost no effect)) | 0 (Herbicidal ratio of 5% or lower (almost no effect)) | 3 (Herbicidal ratio of 40% or higher and lower than 70%) | 5 (Herbicidal ratio of 90% or more (almost completely withered)) | 0 (Herbicidal ratio of 5% or lower (almost no effect)) | 4 (Herbicidal ratio of 70% or higher and lower than 90%) | 1 (Herbicidal ratio of 5% or higher and lower than 20%) | 3 (Herbicidal ratio of 40% or higher and lower than 70%) | 5 (Herbicidal ratio of 90% or more (almost completely withered)) | 5 (Herbicidal ratio of 90% or more (almost completely withered)) | 0 (Herbicidal ratio of 5% or lower (almost no effect)) | 4 (Herbicidal ratio of 70% or higher and lower than 90%)
2 | CSCCON=C(C)CC1CC(O)=C(c2c(C)cc(C)cc2C)C1=O (stereo not drawn) [1-029] | 1 (Herbicidal ratio of 5% or higher and lower than 20%) | 5 (Herbicidal ratio of 90% or more (almost completely withered)) | 4 (Herbicidal ratio of 70% or higher and lower than 90%) | 0 (Herbicidal ratio of 5% or lower (almost no effect)) | 0 (Herbicidal ratio of 5% or lower (almost no effect)) | 1 (Herbicidal ratio of 5% or higher and lower than 20%) | 5 (Herbicidal ratio of 90% or more (almost completely withered)) | 0 (Herbicidal ratio of 5% or lower (almost no effect)) | 5 (Herbicidal ratio of 90% or more (almost completely withered)) | 1 (Herbicidal ratio of 5% or higher and lower than 20%) | 1 (Herbicidal ratio of 5% or higher and lower than 20%) | 5 (Herbicidal ratio of 90% or more (almost completely withered)) | 5 (Herbicidal ratio of 90% or more (almost completely withered)) | 0 (Herbicidal ratio of 5% or lower (almost no effect)) | 3 (Herbicidal ratio of 40% or higher and lower than 70%)
3 | COCC(CC1CC(O)=C(c2c(C)cc(C)cc2C)C1=O)=NOC (stereo not drawn) [1-040] | 3 (Herbicidal ratio of 40% or higher and lower than 70%) | 5 (Herbicidal ratio of 90% or more (almost completely withered)) | 4 (Herbicidal ratio of 70% or higher and lower than 90%) | 0 (Herbicidal ratio of 5% or lower (almost no effect)) | 0 (Herbicidal ratio of 5% or lower (almost no effect)) | 0 (Herbicidal ratio of 5% or lower (almost no effect)) | 4 (Herbicidal ratio of 70% or higher and lower than 90%) | 0 (Herbicidal ratio of 5% or lower (almost no effect)) | 5 (Herbicidal ratio of 90% or more (almost completely withered)) | 1 (Herbicidal ratio of 5% or higher and lower than 20%) | 0 (Herbicidal ratio of 5% or lower (almost no effect)) | 5 (Herbicidal ratio of 90% or more (almost completely withered)) | 4 (Herbicidal ratio of 70% or higher and lower than 90%) | 0 (Herbicidal ratio of 5% or lower (almost no effect)) | 4 (Herbicidal ratio of 70% or higher and lower than 90%)
4 | CON=C(C)CC1CC(OC(=O)C(C)Cl)=C(c2c(C)cc(C)cc2C)C1=O (stereo not drawn) [1-042] | 3 (Herbicidal ratio of 40% or higher and lower than 70%) | 5 (Herbicidal ratio of 90% or more (almost completely withered)) | 5 (Herbicidal ratio of 90% or more (almost completely withered)) | 1 (Herbicidal ratio of 5% or higher and lower than 20%) | 0 (Herbicidal ratio of 5% or lower (almost no effect)) | 3 (Herbicidal ratio of 40% or higher and lower than 70%) | 5 (Herbicidal ratio of 90% or more (almost completely withered)) | 5 (Herbicidal ratio of 90% or more (almost completely withered)) | 5 (Herbicidal ratio of 90% or more (almost completely withered)) | 3 (Herbicidal ratio of 40% or higher and lower than 70%) | 1 (Herbicidal ratio of 5% or higher and lower than 20%) | 5 (Herbicidal ratio of 90% or more (almost completely withered)) | 5 (Herbicidal ratio of 90% or more (almost completely withered)) | 0 (Herbicidal ratio of 5% or lower (almost no effect)) | 5 (Herbicidal ratio of 90% or more (almost completely withered))
5 | CON=C(C)CC1CC(OC(=O)COc2ccccc2)=C(c2c(C)cc(C)cc2C)C1=O (stereo not drawn) [1-043] | 4 (Herbicidal ratio of 70% or higher and lower than 90%) | 5 (Herbicidal ratio of 90% or more (almost completely withered)) | 5 (Herbicidal ratio of 90% or more (almost completely withered)) | 3 (Herbicidal ratio of 40% or higher and lower than 70%) | 4 (Herbicidal ratio of 70% or higher and lower than 90%) | 4 (Herbicidal ratio of 70% or higher and lower than 90%) | 5 (Herbicidal ratio of 90% or more (almost completely withered)) | 4 (Herbicidal ratio of 70% or higher and lower than 90%) | 5 (Herbicidal ratio of 90% or more (almost completely withered)) | 4 (Herbicidal ratio of 70% or higher and lower than 90%) | 2 (Herbicidal ratio of 20% or higher and lower than 40%) | 5 (Herbicidal ratio of 90% or more (almost completely withered)) | 5 (Herbicidal ratio of 90% or more (almost completely withered)) | 3 (Herbicidal ratio of 40% or higher and lower than 70%) | 5 (Herbicidal ratio of 90% or more (almost completely withered))
